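In this assay, cells in 96-well plates receive the compound at five concentrations for 48 hours. Endpoints are linearly interpolated between the surrounding concentrations. GI50 is the concentration that inhibits growth by half. Definition used: TGI = concentration required for complete inhibition of growth.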
Assays:
Assay in all cases: DTP human tumour cell line panel, 48 h
SK-OV-3 ovarian = tested on: SK-OV-3 ovarian
SF-268 CNS = tested on: SF-268 CNS
OVCAR-4 ovarian = tested on: OVCAR-4 ovarian
NCI-H522 lung = tested on: NCI-H522 lung
HS 578T breast = tested on: HS 578T breast
HOP-62 NSCLC = tested on: HOP-62 NSCLC
SF-539 CNS = tested on: SF-539 CNS
MDA-MB-231 breast = tested on: MDA-MB-231 breast
CAKI-1 renal = tested on: CAKI-1 renal
SK-MEL-5 melanoma = tested on: SK-MEL-5 melanoma
SN12C renal = tested on: SN12C renal
DU-145 prostate = tested on: DU-145 prostate

Structure (SMILES)	TGI (SK-OV-3 ovarian) [µM]	TGI (SF-268 CNS) [µM]	TGI (OVCAR-4 ovarian) [µM]	TGI (NCI-H522 lung) [µM]	TGI (HS 578T breast) [µM]	TGI (HOP-62 NSCLC) [µM]	TGI (SF-539 CNS) [µM]	TGI (MDA-MB-231 breast) [µM]	TGI (CAKI-1 renal) [µM]	TGI (SK-MEL-5 melanoma) [µM]	TGI (SN12C renal) [µM]	TGI (DU-145 prostate) [µM]	GI50 (SK-OV-3 ovarian) [µM]	GI50 (MDA-MB-231 breast) [µM]	GI50 (CAKI-1 renal) [µM]	GI50 (NCI-H522 lung) [µM]	GI50 (SK-MEL-5 melanoma) [µM]	GI50 (SN12C renal) [µM]	GI50 (DU-145 prostate) [µM]	GI50 (SF-539 CNS) [µM]
Cc1cc(C)c(NC(=O)/C=C/c2ccccc2)c(C)c1	> 100	> 100	> 100	61.8	> 100	> 100	> 100													
O=C1/C(=C/c2ccc(Cl)cc2)N=C(c2ccccc2)N1/N=C/c1ccccc1O	22.4	47.1	19.9	35.6	92.8	5.21	26.6	63.3	22.3	> 100	> 100	> 100								
CCP(=O)(CC)C(Cl)(Cl)C(O)C(Cl)(Cl)Cl (stereo not drawn)	> 100		> 100	> 100	> 100	> 100		> 100	> 100	> 100	> 100	> 100								
CN1C(=O)CN2C(Cl)(Cl)C2(c2ccccc2)c2cc(Cl)ccc21 (stereo not drawn)	> 100	> 100	> 100	> 100		> 100			> 100	> 100	> 100									
NCCCn1c2c(c3ccc([N+](=O)[O-])cc3c1=O)C(=O)c1cc(F)ccc1-2	0.349			0.116			0.101	1.24	0.266	0.199	0.805	0.451	0.0139	0.422	0.0498	< 0.01	0.0603	0.0439	< 0.0104	0.0288
